# In patent US20240189255A1, “METHODS OF TREATMENT OF OSTEOARTHRITIS WITH TRANSDERMAL CANNABIDIOL GEL” (ZYNERBA PHARMACEUTICALS, INC., priority 2017, published 2024):
# Legend:
# [1] = test system: patients with confirmed osteoarthritis of the knee; assay: Double-blind, multi-center, placebo-controlled 12-week trial: worst knee pain score, WOMAC physical function, composite responders; format: in vivo, human; design: mean reduction from baseline in average worst knee pain scores / Worst Knee Pain Score: scale not given here
# Protocol: (§1) Three hundred and twenty (320) patients aged 41 to 78 years of age with confirmed osteoarthritis of the knee were randomized in the double-blind, multi-center trial. Patients who completed the one-week washout and the seven-to-10-day baseline phase were randomized 1:1:1 to receive either 250 mg of CBD daily, 500 mg of CBD daily, or placebo, for 12 weeks. […] The 250 mg and 500 mg doses were administered as a 4.2% (wt/wt) CBD gel.
# Across all participants, patients on 250 mg of CBD daily dosage achieved a 2.64 mean reduction from baseline in average worst knee pain scores at week 12; patients on 500 mg of CBD daily achieved a 2.83 mean reduction from baseline in average worst knee pain scores at week 12; and patients on placebo achieved a 2.37 mean reduction from baseline in average worst knee pain scores at week 12. […] A mixed-model repeated measures (MMRM) model was used to test for differences between active treatment groups and placebo based on all weekly average worst knee pain scores from Baseline to Week 12.
# Over an initial 7 day period, patients were instructed to end use of other osteoarthritic treatment such as NSAID or COX-2 inhibitor, but were permitted to use acetaminophen for rescue use. At this time, baseline mean worst knee pain was identified for each patient. During the study, rescue use of acetaminophen was permitted for both active and placebo study groups, and there was no difference among the groups in prevalence of rescue use.
# Fisher's Exact Test was used to test for differences in composite responders between each active treatment and placebo at LOCF. In the composite responder analysis, a positive response on the composite response analysis indicated a ≥30 percent reduction in worst average daily pain scores and a >20 percent improvement in WOMAC (Western Ontario & McMaster Universities Osteoarthritis Index) physical function score.
# The study data was also analyzed with regard to the active dose per weight of the patient (i.e., dosage/weight in mg CBD/kg weight of patient). For this analysis, the patient population was divided into three groups: 0-25 percentile, 25-75 percentile, and 75-100 percentile, by dose/weight. Table 9 is a summary of composite responder analysis at last observation Dose/Weight Quartile 0-25%. Table 10 is a summary of composite responder analysis at last observation dose/weight quartile 25-75%. Table 11 is a summary of composite responder analysis at last observation dose/weight quartile 75-100%.
# [2] = Pharmacokinetic data: plasma concentrations in the 12-week osteoarthritis trial; format: in vivo, human
# Protocol: as §1
# [3] = 250 mg CBD, efficacy patients, last observation, 93 assessed
# [4] = 250 mg CBD, efficacy patients, last observation, 106 assessed
# [5] = 500 mg CBD, efficacy patients, last observation, 91 assessed
# [6] = 500 mg CBD, efficacy patients, last observation, 105 assessed
# [7] = Dose/Weight Quartile 0-25%, 250 mg, last observation, 46 assessed, p=0.010
compound,measurement,setting,value
"C=C(C)[C@@H]1CCC(C)=C[C@H]1c1c(O)cc(CCCCC)cc1O [CBD, 2-[3-methyl-6-(1-methylethenyl)-2-cyclohexen-1-yl]-5-pentyl-1,3-benzenediol]","20 Percent Responders in Physical Function WOMAC Score: No, number of patients",[1]; [3],33
same,"20 Percent Responders in Physical Function WOMAC Score: No, percent of patients",[1]; [3],(35.5) %
same,"20 Percent Responders in Physical Function WOMAC Score: Yes, number of patients",[1]; [3],60
same,"20 Percent Responders in Physical Function WOMAC Score: Yes, percent of patients",[1]; [3],(64.5) %
same,"Composite Responder: No, number of patients",[1]; [3],44
same,"Composite Responder: No, percent of patients",[1]; [3],(47.3) %
same,"Composite Responder: Yes, number of patients","[1]; 250 mg CBD, efficacy patients, last observation, 93 assessed, p=0.016 vs placebo",49
same,"30 Percent Reduction in Diary Pain: No, number of patients",[1]; [4],53
same,"30 Percent Reduction in Diary Pain: No, percent of patients",[1]; [4],(50.0) %
same,"30 Percent Reduction in Diary Pain: Yes, number of patients",[1]; [4],53
same,"30 Percent Reduction in Diary Pain: Yes, percent of patients",[1]; [4],(50.0) %
same,responder rate based on ≥30% reduction in worst pain severity,"[1]; 250 mg of CBD daily, week 8, p=0.037",Statistically significant
same,"20 Percent Responders in Physical Function WOMAC Score: No, number of patients",[1]; [5],37
same,"20 Percent Responders in Physical Function WOMAC Score: No, percent of patients",[1]; [5],(40.7) %
same,"20 Percent Responders in Physical Function WOMAC Score: Yes, number of patients",[1]; [5],54
same,"20 Percent Responders in Physical Function WOMAC Score: Yes, percent of patients",[1]; [5],(59.3) %
same,"Composite Responder: No, number of patients",[1]; [5],50
same,"Composite Responder: No, percent of patients",[1]; [5],(54.9) %
same,"Composite Responder: Yes, number of patients","[1]; 500 mg CBD, efficacy patients, last observation, 91 assessed, p=0.169 vs placebo",41
same,"30 Percent Reduction in Diary Pain: No, number of patients",[1]; [6],54
same,"30 Percent Reduction in Diary Pain: No, percent of patients",[1]; [6],(51.4) %
same,"30 Percent Reduction in Diary Pain: Yes, number of patients",[1]; [6],51
same,"30 Percent Reduction in Diary Pain: Yes, percent of patients",[1]; [6],(48.6) %
same,"20 Percent Responders in Physical Function WOMAC Score: Yes, percent of patients","[1]; Dose/Weight Quartile 0-25%, 250 mg, last observation, 46 assessed",69.6%
same,"Composite Responders: Yes, number of patients",[1]; [7],27
same,"Composite Responders: Yes, percent of patients",[1]; [7],58.7%
same,mean reduction from baseline in average worst knee pain scores,"[1]; all participants, 250 mg CBD daily, week 12, placebo 2.37, not statistically significant",2.64
same,mean reduction from baseline in average worst knee pain scores,"[1]; all participants, 500 mg CBD daily, week 12, placebo 2.37, not statistically significant",2.83
same,mean reduction from baseline in average worst knee pain scores,"[1]; baseline pain score ≥7, both CBD dosage groups combined, week 4, placebo 1.6, p=0.029",2.17
same,mean reduction from baseline in average worst knee pain scores,"[1]; baseline pain score ≥7, both CBD dosage groups combined, week 8, placebo 2.22, p=0.054",3.02
same,mean reduction from baseline in average worst knee pain scores,"[1]; baseline pain score ≥7, both CBD dosage groups combined, week 12, placebo 2.52, p=0.086",3.29
same,"Composite Responders: Yes, percent of patients","[1]; dose/weight quartile 25-75%, 250 mg, last observation, 47 assessed, p=0.194",46.8%
same,"Composite Responders: Yes, percent of patients","[1]; dose/weight quartile 25-75%, 500 mg, last observation, 45 assessed, p=0.133",48.9%
same,"Composite Responders: Yes, percent of patients","[1]; dose/weight quartile 75-100%, 500 mg, last observation, 46 assessed, p=0.453",41.3%
same,Composite Responders,"[1]; male patients, 250 mg, LOCF, placebo 27%, p=0.003",60%
same,"Worst Knee Pain Score, % reduction","[1]; male patients, 250 mg, wk 4",24%
same,Worst Knee Pain Score,"[1]; male patients, 250 mg, wk 4, baseline 6.77, p=0.156",5.05
same,"Worst Knee Pain Score, % reduction","[1]; male patients, 250 mg, wk 8",34%
same,Worst Knee Pain Score,"[1]; male patients, 250 mg, wk 8, baseline 6.77, p=0.066",4.47
same,"Worst Knee Pain Score, % reduction","[1]; male patients, 250 mg, wk 12",39%
same,Worst Knee Pain Score,"[1]; male patients, 250 mg, wk 12, n=47, baseline 6.77, p=0.049",4.16
same,Composite Responders,"[1]; male patients, 500 mg, LOCF, placebo 27%, p=0.174",41%
same,"Worst Knee Pain Score, % reduction","[1]; male patients, 500 mg, wk 4",22%
same,Worst Knee Pain Score,"[1]; male patients, 500 mg, wk 4, baseline 6.85, p=0.323",5.33
same,"Worst Knee Pain Score, % reduction","[1]; male patients, 500 mg, wk 8",30%
same,Worst Knee Pain Score,"[1]; male patients, 500 mg, wk 8, baseline 6.85, p=0.474",4.73
same,"Worst Knee Pain Score, % reduction","[1]; male patients, 500 mg, wk 12",33%
same,Worst Knee Pain Score,"[1]; male patients, 500 mg, wk 12, n=38, baseline 6.85, p=0.193",4.44
same,mean reduction from baseline in average worst knee pain scores,"[1]; men, 250 mg of CBD daily, week 4, placebo 1.19, p=0.156",1.65
same,mean reduction from baseline in average worst knee pain scores,"[1]; men, 250 mg of CBD daily, week 8, placebo 1.56, p=0.066",2.30
same,mean reduction from baseline in average worst knee pain scores,"[1]; men, 250 mg of CBD daily, week 12, placebo 1.70, p=0.049",2.68
same,pain reduction over placebo,"[1]; patients having a baseline knee pain score less than 7, FIG. 10",not statistically significant
same,Composite Responders,"[1]; patients with ≥7 mean baseline pain score, CBD groups combined, placebo 33%, p=0.083",51%
same,"Worst Knee Pain Score, % reduction","[1]; patients with ≥7 mean baseline pain score, CBD groups combined, wk4",28%
same,Worst Knee Pain Score,"[1]; patients with ≥7 mean baseline pain score, CBD groups combined, wk4, baseline 7.7, p=0.029",5.45
same,"Worst Knee Pain Score, % reduction","[1]; patients with ≥7 mean baseline pain score, CBD groups combined, wk8",40%
same,Worst Knee Pain Score,"[1]; patients with ≥7 mean baseline pain score, CBD groups combined, wk8, baseline 7.7, p=0.054",4.61
same,"Worst Knee Pain Score, % reduction","[1]; patients with ≥7 mean baseline pain score, CBD groups combined, wk12",43%
same,Worst Knee Pain Score,"[1]; patients with ≥7 mean baseline pain score, CBD groups combined, wk12, n=75, baseline 7.7, p=0.086",4.34
same,"Worst Knee Pain Score, % reduction","[1]; total patients, 250 mg, wk 4",24%
same,Worst Knee Pain Score,"[1]; total patients, 250 mg, wk 4, baseline 6.8, p=0.432",5.09
same,"Worst Knee Pain Score, % reduction","[1]; total patients, 250 mg, wk 8",34%
same,Worst Knee Pain Score,"[1]; total patients, 250 mg, wk 8, baseline 6.8, p=0.193",4.43
same,"Worst Knee Pain Score, % reduction","[1]; total patients, 250 mg, wk 12",38%
same,Worst Knee Pain Score,"[1]; total patients, 250 mg, wk 12, n=76, baseline 6.8, p=0.517",4.23
same,"Worst Knee Pain Score, % reduction","[1]; total patients, 500 mg, wk 4",27%
same,Worst Knee Pain Score,"[1]; total patients, 500 mg, wk 4, baseline 6.87, p=0.067",4.96
same,"Worst Knee Pain Score, % reduction","[1]; total patients, 500 mg, wk 8",37%
same,Worst Knee Pain Score,"[1]; total patients, 500 mg, wk 8, baseline 6.87, p=0.21",4.27
same,"Worst Knee Pain Score, % reduction","[1]; total patients, 500 mg, wk 12",41%
same,Worst Knee Pain Score,"[1]; total patients, 500 mg, wk 12, n=75, baseline 6.87, p=0.249",3.99
same,"dose media plasma concentrations, dose relationship",[2]; 500 mg and 250 mg daily CBD doses,dose proportional
same,plasma concentration of the 500 mg dose relative to the 250 mg dose,[2]; 500 mg vs 250 mg daily,approximately two times
